Assay results from ChEMBL document CHEMBL1133217, “Purpurinimides as photosensitizers: effect of the presence and position of the substituents in the in vivo photodynamic efficacy” (Bioorg Med Chem Lett, 2000).

How the values were obtained:
[1] = Partition coefficient (logP); assay type: physicochemical; conditions: octanol/water
[2] = test system: Mus musculus; experiment: In vivo antitumor activity was determined after administration of compound (1.0 umol/kg) in mice bearing RIF tumors exposed to laser light (135 J/cm**2) on day 1-2; assay type: functional
[3] = test system: Mus musculus; experiment: In vivo antitumor activity was determined after administration of compound (1.0 umol/kg) in mice bearing RIF tumors exposed to laser light (135 J/cm**2) on day 7; Tumor regrowth; assay type: functional, organism-based
[4] = test system: Mus musculus; experiment: In vivo antitumor activity was determined after administration of compound (1.0 umol/kg) in mice bearing RIF tumors exposed to laser light (135 J/cm**2) on day 7; assay type: functional
[5] = test system: Mus musculus; experiment: In vivo antitumor activity was determined after administration of compound (1.0 umol/kg) in mice bearing RIF tumors exposed to laser light (135 J/cm**2) on day 14; assay type: functional
[6] = test system: Mus musculus; experiment: In vivo antitumor activity was determined after administration of compound (1.0 umol/kg) in mice bearing RIF tumors exposed to laser light (135 J/cm**2) on day 30; assay type: functional
[7] = test system: Mus musculus; experiment: In vivo antitumor activity was determined after administration of compound (1.0 umol/kg) in mice bearing RIF tumors exposed to laser light (135 J/cm**2) on day 21; assay type: functional
[8] = test system: Mus musculus; experiment: In vivo antitumor activity was determined after administration of compound (1.0 umol/kg) in mice bearing RIF tumors exposed to laser light (135 J/cm**2) on day 30; No rseponse; assay type: functional, organism-based
[9] = test system: Mus musculus; experiment: In vivo antitumor activity was determined after administration of compound (1.0 umol/kg) in mice bearing RIF tumors exposed to laser light (135 J/cm**2) on day 1-2; No rseponse; assay type: functional, organism-based
[10] = test system: Mus musculus; experiment: In vivo antitumor activity was determined after administration of compound (1.0 umol/kg) in mice bearing RIF tumors exposed to laser light (135 J/cm**2) on day 7; No rseponse; assay type: functional, organism-based
[11] = test system: Mus musculus; experiment: In vivo antitumor activity was determined after administration of compound (1.0 umol/kg) in mice bearing RIF tumors exposed to laser light (135 J/cm**2) on day 14; No rseponse; assay type: functional, organism-based
[12] = test system: Mus musculus; experiment: In vivo antitumor activity was determined after administration of compound (1.0 umol/kg) in mice bearing RIF tumors exposed to laser light (135 J/cm**2) on day 21; No rseponse; assay type: functional, organism-based

Row | SMILES | logP [1] | Tumor cure [2] | Tumor cure [3] | Tumor cure [4] | Tumor cure [5] | Tumor cure [6] | Tumor cure [7] | Tumor cure [8] | Tumor cure [9] | Tumor cure [10] | Tumor cure [11] | Tumor cure [12]
1 | CCCCCCCCCCN1C(=O)c2c3nc(cc4nc(cc5[nH]c(cc6[nH]c2c(c6C)C1=O)c(CC)c5C)C(CC)=C4C)[C@@H](C)[C@@H]3CCC(=O)OC | 10.62 | 100% | Tumour regrowth | – | – | – | – | – | – | – | – | –
2 | CCCCCCCOCc1c2nc(c3c4nc(cc5[nH]c(cc6[nH]c1c(C)c6CC)c(C)c5CC)C(C)=C4C(=O)N(CCCCCC)C3=O)[C@@H](CCC(=O)OC)[C@@H]2C | 10.78 | 50% | – | 50% | 50% | 50% | 50% | – | – | – | – | –

Further lines, with some results ahead:

Row | logP [1] | SMILES | Tumor cure [2] | Tumor cure [3] | Tumor cure [4] | Tumor cure [5] | Tumor cure [6] | Tumor cure [7] | Tumor cure [8] | Tumor cure [9] | Tumor cure [10] | Tumor cure [11] | Tumor cure [12]
3 | 10.83 | CCCCCCCOC(C)C1=C(C)c2cc3nc(c4c5[nH]c(cc6[nH]c(cc1n2)c(C)c6CC)c(C)c5C(=O)N(CCCCCC)C4=O)[C@@H](CCC(=O)OC)[C@@H]3C (some centres not stated) | 100% | – | 100% | 100% | 100% | 100% | – | – | – | – | –
4 | 10.83 | CCCCCCCOC(C)c1c(C)c2cc3[nH]c(cc4nc(c5c6nc(cc1[nH]2)C(C)=C6C(=O)N(CCCCCC)C5=O)[C@@H](CCC(=O)OC)[C@@H]4C)c(C)c3CC (some centres not stated) | – | – | – | – | – | – | No response | No response | No response | No response | No response
5 | 10.8 | CCCCCCCCOCC1=C(C)c2cc3nc(c4c5[nH]c(cc6[nH]c(cc1n2)c(C)c6CC)c(C)c5C(=O)N(CCCCCC)C4=O)[C@@H](CCC(=O)OC)[C@@H]3C | – | – | – | – | – | – | No response | No response | No response | No response | No response
